{"source": "patent US20120213789A1", "about": "“New Molecular Target for Treatment of Cancer” (priority 2001, published 2012)", "key": {"C4-2B Prostate Cell Line": {"test_system": "C4-2B Prostate Cell Line", "assay": "Dual label UC28 C/AnnexinV flow cytometry after SPB treatment", "type": "cell-based, human", "details": "for Total AnnexV / Total UC28C: 72 hours, UC28-GAR-CY5/AnnexV-FITC", "protocol": "(§1) Cells were grown to 70-80% confluence at 37° C. and 5% CO2 in T-75 tissue culture plastic flasks. SPB stock solution was added to final concentrations of 0.5, 5.0, 10.0, and 25.0 mM in appropriate fresh media to the cell cultures. Cells were incubated at 37° C. and 5% CO2 for 72 hours. Attached cells were then harvested using a solution of 0.05% trypsin and 0.53 mM EDTA (Invitrogen Corp.). Attached cells were then pooled with any the detached cells and washed with PBS pH 7.2. Cell numbers and percent viability were determined using Trypan blue dye exclusion and a hemacytometer. At the time of their use in an experiment the viability was usually about 85% for untreated cells and a range of about 15-70% for treated cells, with the lower viabilities found at higher SPB concentrations (Thompson C, 1995; Cory et al., 1998; van Engeland et al., 1996).\nVO1 Apoptosis Detection Kit contains: (1) Fluorocein-isothiocyante (FITC) conjugated AnnexinV [AnnexinV01] 1 ml (2) Propidium Iodide [Annex-Pi] 2.0 ml (3) 4× Binding Buffer [Annex-B] 20.0 ml. Vendor is CalTag Laboratories, Inc., 1849 Bayshore Boulevard #200 Burlingame, Calif. 94010.\nUC28(C) is 2.14 mg/ml rabbit polyclonal aliquot directed against the inventors' UC28 patented biomarker developed by UCor R&D gene discovery program. The Antibody was produced against a twenty amino acid (AA) synthetic peptide from the predicted AA sequence (AA 21-37) UCor, Inc. 840 Research Parkway Oklahoma City, Okla. 73104.\nGoat Anti-Rabbit CY5 polyclonal Fluorchrome was used as the secondary conjugate for UC28 C rabbit polyclonal antibody and a background control for UC28 C polyclonal. Vendor is Jackson ImmunoResearch Laboratories, Inc. 872 West Baltimore Pike, P.O. Box 9 West Grove, Pa. 19390.\nMsIgG-FITC mouse conjugated-FITC was used for background control for AnnexinV01. Vendor is Becicman Coulter, Inc. Diagnostic Division, 11800 SW 147th Ave. M/S 42-003, P.O. Box 169015, Miami, Floridia 33116-9015.\nA Coulter Elite engineered with a triple laser system was used to analyze all samples. Coulter control beads were used to align lasers for the dual label testing of cell samples. Laser alignment was required for both the Argon (488 nm line) laser and HeNe (633 nm line) laser. These alignments were performed prior to all measurements with the Argon laser (488 nm line) using fluorophores for FITC, RPE, PI and the HeNe laser (633 nm line) for the Cy5 fluorophores being used for the experiments described below. The histographs, voltage settings, gates, color compensation, and pressures were established prior to all sample processing. […]\nUC28 and Annexin V were co-labeled in the three cell lines to assess the induction of UC28 by SPB and its correlation to the induction of apoptosis. […] It may be noted that in previously published experiments, AnnexinV and PI were run in combination with several prostate cancer cell lines, one of which was LNCaP, but not with C4-2B or MLC-SV40. It was determined that they produced similar dose-response kinetics when exposed to 0.5-25 mM of SPB for 72 hours (Ng et al., 1989). That is, as the dose of SPB increased, so did the membrane perturbation events measured by these two methods."}, "[1]": {"test_system": "C4-2B metastatic cell line", "assay": "Secretion of soluble tPSA and fPSA under SPB treatment", "type": "cell-based, human", "details": "culture supernatants", "protocol": "as §1, with “1996). […] The data confirms the biological differences in these three cell lines and provides a stronger basis upon which to assess the behavior of the UC28 gene under the same SPB treatment conditions. For both of these experiments, supernatants were collected from the same experiments as in Example 1; cells were collected and assayed for apoptosis as well as for UC28 antigen expression using antibodies to SEQ ID NO:4.” for “1996).”"}}}
{"compound": "O=C([O-])CCCc1ccccc1.[Na+]", "note": "[SPB, 4-Phenylbutyric Acid, Sodium Salt]", "values": [{"measurement": "Total AnnexV", "setting": "C4-2B Prostate Cell Line; 0.5 mM SPB", "value": 41.1, "unit": "%"}, {"measurement": "Total UC28C", "setting": "C4-2B Prostate Cell Line; 0.5 mM SPB", "value": 29.8, "unit": "%"}, {"measurement": "Total AnnexV", "setting": "C4-2B Prostate Cell Line; 5.0 mM SPB", "value": 94.0, "unit": "%"}, {"measurement": "Total UC28C", "setting": "C4-2B Prostate Cell Line; 5.0 mM SPB", "value": 81.8, "unit": "%"}, {"measurement": "Total AnnexV", "setting": "C4-2B Prostate Cell Line; 10 mM SPB", "value": 80.0, "unit": "%"}, {"measurement": "Total UC28C", "setting": "C4-2B Prostate Cell Line; 10 mM SPB", "value": 88.0, "unit": "%"}, {"measurement": "Total AnnexV", "setting": "C4-2B Prostate Cell Line; 25 mM SPB", "value": 82.3, "unit": "%"}, {"measurement": "Total UC28C", "setting": "C4-2B Prostate Cell Line; 25 mM SPB", "value": 96.5, "unit": "%"}, {"measurement": "UC28 up regulation", "setting": "C4-2B Prostate Cell Line; SPB, summary of Table 5", "value": "up regulated"}, {"measurement": "induction of apoptosis", "setting": "C4-2B Prostate Cell Line; SPB, summary of Table 5", "value": "induced"}, {"measurement": "fPSA production", "setting": "[1]", "value": "down-regulated"}, {"measurement": "tPSA production", "setting": "[1]", "value": "down-regulated"}]}
